Biological target: T1, GlyT1 (Homo sapiens, UniProt P48067)
T1 construct: expressed in transfected cells
T1 sequence (P48067 1-706): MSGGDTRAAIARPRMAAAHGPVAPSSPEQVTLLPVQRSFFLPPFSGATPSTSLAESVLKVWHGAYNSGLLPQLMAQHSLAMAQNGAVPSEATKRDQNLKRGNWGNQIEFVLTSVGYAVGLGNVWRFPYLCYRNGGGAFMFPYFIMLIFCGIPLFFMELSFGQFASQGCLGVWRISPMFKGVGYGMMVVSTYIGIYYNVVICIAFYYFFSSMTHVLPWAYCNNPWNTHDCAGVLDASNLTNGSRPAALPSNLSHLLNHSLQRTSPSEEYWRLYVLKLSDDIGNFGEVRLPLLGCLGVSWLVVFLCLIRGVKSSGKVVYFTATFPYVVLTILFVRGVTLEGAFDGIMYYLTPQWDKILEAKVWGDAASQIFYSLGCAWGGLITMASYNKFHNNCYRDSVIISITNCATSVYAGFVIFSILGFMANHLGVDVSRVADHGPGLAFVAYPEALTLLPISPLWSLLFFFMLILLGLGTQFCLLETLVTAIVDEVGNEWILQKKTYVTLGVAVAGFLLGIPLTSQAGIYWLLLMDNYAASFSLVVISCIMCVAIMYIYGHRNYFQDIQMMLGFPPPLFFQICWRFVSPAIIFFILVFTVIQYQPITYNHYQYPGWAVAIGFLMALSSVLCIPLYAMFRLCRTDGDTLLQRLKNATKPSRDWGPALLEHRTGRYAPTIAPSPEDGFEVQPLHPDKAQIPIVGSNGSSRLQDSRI
Assay: Glycine Transporter 1 (GlyT1) uptake assay, scintillation proximity assay of [14C]-glycine uptake
Assay type: cell-based
Details: SPA, four parameter logistic fit, read-out: GlyT1 (pIC50) (converted)
Outline: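 IC50 values derive from four-parameter logistic curves fitted to dose-response data. Uptake of [14C]-glycine measured in scintillation proximity format.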

## C[C@H](Oc1ccc(S(C)(=O)=O)cc1C(=O)N1Cc2cn(-c3cccc(Cl)c3F)nc2C1)C(F)(F)F [Example 146, 2-(3-Chloro-2-fluorophenyl)-5-(5-methanesulfonyl-2-{[(2S)-1 1 1-trifluoropropan-2-yl]oxy}benzoyl)-2H 4H 5H 6H-pyrrolo[3,4-c]pyrazole]
  IC50: < 0.1 µM

## C[C@H](Oc1ccc(S(C)(=O)=O)cc1C(=O)N1Cc2cn(-c3cccc(F)c3Cl)nc2C1)C(F)(F)F [Example 147, 2-(2-Chloro-3-fluorophenyl)-5-(5-methanesulfonyl-2-{[(2S)-1 1 1-trifluoropropan-2-yl]oxy}benzoyl)-2H 4H 5H 6H-pyrrolo[3,4-c]pyrazole]
  IC50: < 0.1 µM

## CC(C)Oc1ccc(S(C)(=O)=O)cc1C(=O)N1Cc2cn(-c3cccc(Cl)c3F)nc2C1 [Example 148, 2-(3-Chloro-2-fluorophenyl)-5-[5-methanesulfonyl-2-(propan-2-yloxy)benzoyl]-2H 4H 5H 6H-pyrrolo[3,4-c]pyrazole]
  IC50: < 0.1 µM

## CC(C)Oc1ccc(S(C)(=O)=O)cc1C(=O)N1Cc2cn(-c3cccc(F)c3Cl)nc2C1 [Example 149, 2-(2-Chloro-3-fluorophenyl)-5-[5-methanesulfonyl-2-(propan-2-yloxy)benzoyl]-2H 4H 5H 6H-pyrrolo[3,4-c]pyrazole]
  IC50: < 0.1 µM

## CCS(=O)(=O)c1ccc(O[C@@H](C)C(F)(F)F)c(C(=O)N2Cc3cn(-c4cccc(Cl)c4F)nc3C2)c1 [Example 150, 2-(3-Chloro-2-fluorophenyl)-5-[5-(ethanesulfonyl)-2-{[(2S)-1 1 1-trifluoropropan-2-yl]oxy}benzoyl]-2H 4H 5H 6H-pyrrolo[3,4-c]pyrazole]
  IC50: < 0.1 µM

## CCS(=O)(=O)c1ccc(O[C@@H](C)C(F)(F)F)c(C(=O)N2Cc3cn(-c4cccc(F)c4Cl)nc3C2)c1 [Example 151, 2-(2-Chloro-3-fluorophenyl)-5-[5-(ethanesulfonyl)-2-{[(2S)-1 1 1-trifluoropropan-2-yl]oxy}benzoyl]-2H 4H 5H 6H-pyrrolo[3,4-c]pyrazole]
  IC50: < 0.1 µM

## CS(=O)(=O)c1ccc(-c2cccc(F)c2)c(C(=O)N2Cc3cn(-c4ccccn4)nc3C2)c1 [Example 152, 2-{5-[2-(3-Fluorophenyl)-5-methanesulfonylbenzoyl]-2H 4H 5H 6H-pyrrolo[3,4-c]pyrazol-2-yl}pyridine]
  IC50: < 0.1 µM

## CC(Oc1ccc(C#N)c(Cl)c1C(=O)N1CCc2nn(-c3cncc(F)c3)cc2C1)C(F)(F)F (centres unmarked) [Example 153, 2-Chloro-3-[2-(5-fluoropyridin-3-yl)-2H 4H 5H 6H 7H-pyrazolo[4,3-c]pyridine-5-carbonyl]-4-[(1 1 1-trifluoropropan-2-yl)oxy]benzonitrile]
  IC50: < 0.1 µM

## COc1c(C#N)ccc(OC(C)C(F)(F)F)c1C(=O)N1CCc2nn(-c3cncc(F)c3)cc2C1 (centres unmarked) [Example 154, 3-[2-(5-Fluoropyridin-3-yl)-2H 4H 5H 6H 7H-pyrazolo[4,3-c]pyridine-5-carbonyl]-2-methoxy-4-[(1 1 1-trifluoropropan-2-yl)oxy]benzonitrile]
  IC50: < 0.1 µM

## N#Cc1ccc(OCC(F)(F)F)c(C(=O)N2CCc3nn(-c4ccncc4)cc3C2)c1Cl [Example 155, 2-Chloro-3-[2-(pyridin-4-yl)-2H 4H 5H 6H 7H-pyrazolo[4,3-c]pyridine-5-carbonyl]-4-(2 2 2-trifluoroethoxy)benzonitrile]
  IC50: 0.1 to 1 µM

## COc1c(C#N)ccc(OCC(F)(F)F)c1C(=O)N1CCc2nn(-c3ccncc3)cc2C1 [Example 156, 2-Methoxy-3-[2-(pyridin-4-yl)-2H 4H 5H 6H 7H-pyrazolo[4,3-c]pyridine-5-carbonyl]-4-(2 2 2-trifluoroethoxy)benzonitrile]
  IC50: < 0.1 µM

## Cn1ncc2c1CN(C(=O)c1cc(S(C)(=O)=O)ccc1OCC1CC1)C2 [Example 157, 5-[2-(Cyclopropylmethoxy)-5-methanesulfonylbenzoyl]-1-methyl-1H 4H 5H 6H-pyrrolo[3,4-c]pyrazole]
  IC50: > 10 µM

## Cn1ncc2c1CCN(C(=O)c1cc(S(C)(=O)=O)ccc1OCC1CC1)C2 [Example 158, 5-[2-(Cyclopropylmethoxy)-5-methanesulfonylbenzoyl]-1-methyl-1H 4H 5H 6H 7H-pyrazolo[4,3-c]pyridine]
  IC50: > 10 µM

## CS(=O)(=O)c1ccc(OCC2CC2)c(C(=O)N2Cc3cnn(-c4cccc(C(F)(F)F)c4)c3C2)c1 [Example 159, 5-[2-(Cyclopropylmethoxy)-5-methanesulfonylbenzoyl]-1-[3-(trifluoromethyl)phenyl]-1H 4H 5H 6H-pyrrolo[3,4-c]pyrazole]
  IC50: 1 to 10 µM

## CS(=O)(=O)c1ccc(OCC2CC2)c(C(=O)N2CCc3c(cnn3-c3cccc(C(F)(F)F)c3)C2)c1 [Example 160, 5-[2-(Cyclopropylmethoxy)-5-methanesulfonylbenzoyl]-1-[3-(trifluoromethyl)phenyl]-1H 4H 5H 6H 7H-pyrazolo[4,3-c]pyridine]
  IC50: 1 to 10 µM

## CC(Oc1ccc(S(C)(=O)=O)cc1C(=O)N1CCc2c(cnn2C)C1)C(F)(F)F (centres unmarked) [Example 161, 5-{5-Methanesulfonyl-2-[(1 1 1-trifluoropropan-2-yl)oxy]benzoyl}-1-methyl-1H 4H 5H 6H 7H-pyrazolo[4,3-c]pyridine]
  IC50: 1 to 10 µM

## CC(Oc1ccc(S(C)(=O)=O)cc1C(=O)N1CCc2c(cnn2-c2cccc(C(F)(F)F)c2)C1)C(F)(F)F (centres unmarked) [Example 162, 5-{5-Methanesulfonyl-2-[(1 1 1-trifluoropropan-2-yl)oxy]benzoyl}-1-[3-(trifluoromethyl)phenyl]-1H 4H 5H 6H 7H-pyrazolo[4,3-c]pyridine]
  IC50: 0.1 to 1 µM

## CC(Oc1ccc(S(C)(=O)=O)cc1C(=O)N1CCc2nn(-c3ccccc3)cc2C1)C(F)(F)F (centres unmarked) [Example 163, 5-{5-Methanesulfonyl-2-[(1 1 1-trifluoropropan-2-yl)oxy]benzoyl}-2-phenyl-2H 4H 5H 6H 7H-pyrazolo[4,3-c]pyridine]
  IC50: 0.1 to 1 µM

## CC(Oc1ccc(S(C)(=O)=O)cc1C(=O)N1CCc2c(cnn2-c2ccccc2)C1)C(F)(F)F (centres unmarked) [Example 164, 5-{5-Methanesulfonyl-2-[(1 1 1-trifluoropropan-2-yl)oxy]benzoyl}-1-phenyl-1H 4H 5H 6H 7H-pyrazolo[4,3-c]pyridine]
  IC50: 0.1 to 1 µM

## CS(=O)(=O)c1ccc(N2CCCCC2)c(C(=O)N2CCc3c(c(C(F)(F)F)nn3-c3ccccc3)C2)c1 [Example 165, 1-{4-Methanesulfonyl-2-[1-phenyl-3-(trifluoromethyl)-1H 4H 5H 6H 7H-pyrazolo[4,3-c]pyridine-5-carbonyl]phenyl}piperidine]
  IC50: 1 to 10 µM

## Cc1nn(-c2ccccc2)c2c1CN(C(=O)c1cc(S(C)(=O)=O)ccc1N1CCCCC1)CC2 [Example 166, 1-(4-Methanesulfonyl-2-{3-methyl-1-phenyl-1H 4H 5H 6H 7H-pyrazolo[4,3-c]pyridine-5-carbonyl}phenyl)piperidine]
  IC50: 0.1 to 1 µM

## Cc1c2c(nn1-c1ccccc1)CCN(C(=O)c1cc(S(C)(=O)=O)ccc1N1CCCCC1)C2 [Example 167, 1-(4-Methanesulfonyl-2-{3-methyl-2-phenyl-2H 4H 5H 6H 7H-pyrazolo[4,3-c]pyridine-5-carbonyl}phenyl)piperidine]
  IC50: 0.1 to 1 µM

## CC(Oc1ccc(S(C)(=O)=O)cc1C(=O)N1CCc2c(c(C(F)(F)F)nn2-c2ccccc2)C1)C(F)(F)F (centres unmarked) [Example 168, 5-{5-Methanesulfonyl-2-[(1 1 1-trifluoropropan-2-yl)oxy]benzoyl}-1-phenyl-3-(trifluoromethyl)-1H 4H 5H 6H 7H-pyrazolo[4,3-c]pyridine]
  IC50: 1 to 10 µM

## N#Cc1ccc(C2CCCC2)c(C(=O)N2CCc3nn(-c4ccccc4)cc3C2)c1 [Example 169, 4-Cyclopentyl-3-{2-phenyl-2H 4H 5H 6H 7H-pyrazolo[4,3-c]pyridine-5-carbonyl}benzonitrile]
  IC50: 0.1 to 1 µM

## CS(=O)(=O)c1ccc(C2CCCC2)c(C(=O)N2CCc3nn(-c4ccccc4)cc3C2)c1 [Example 170, 5-(2-Cyclopentyl-5-methanesulfonylbenzoyl)-2-phenyl-2H 4H 5H 6H 7H-pyrazolo[4,3-c]pyridine]
  IC50: < 0.1 µM

## O=C(c1cc(N2CCOC2=O)ccc1C1CCCC1)N1CCc2nn(-c3ccccc3)cc2C1 [Example 171, 3-(4-Cyclopentyl-3-{2-phenyl-2H 4H 5H 6H 7H-pyrazolo[4,3-c]pyridine-5-carbonyl}phenyl)-1 3-oxazolidin-2-one]
  IC50: 0.1 to 1 µM

## CC(Oc1ccc(N2CCOC2=O)cc1C(=O)N1CCc2nn(-c3ccccc3)cc2C1)C(F)(F)F (centres unmarked) [Example 172, 3-(3-{2-Phenyl-2H 4H 5H 6H 7H-pyrazolo[4,3-c]pyridine-5-carbonyl}-4-[(1 1 1-trifluoropropan-2-yl)oxy]phenyl)-1 3-oxazolidin-2-one]
  IC50: 1 to 10 µM

## [2H]C1(c2ccc(C#N)cc2C(=O)N2CCc3nn(-c4ccccc4)cc3C2)CCCC1 [Example 173, 4-[(1-^2H)Cyclopentyl]-3-{2-phenyl-2H 4H 5H 6H 7H-pyrazolo[4,3-c]pyridine-5-carbonyl}benzonitrile]
  IC50: 0.1 to 1 µM

## N#Cc1ccc(C2CCC2)c(C(=O)N2CCc3nn(-c4ccccc4)cc3C2)c1 [Example 174, 4-Cyclobutyl-3-{2-phenyl-2H 4H 5H 6H 7H-pyrazolo[4,3-c]pyridine-5-carbonyl}benzonitrile]
  IC50: 1 to 10 µM

Source: US9708334B2, “Substituted 2,4,5,6-tetrahydropyrrolo[3,4-c]pyrazole and 4,5,6,7-tetrahydro-2H-pyrazolo[4,3-c]pyridine compounds as GlyT1 inhibitors” (DART NEUROSCIENCE (CAYMAN) LTD., priority 2014, dated 2017)
